Data published in article PMC6686011, “Ruthenium(II) complexes with 6-methyl-2-thiouracil selectively reduce cell proliferation, cause DNA double-strand break and trigger caspase-mediated apoptosis through JNK/p38 pathways in human acute promyelocytic leukemia cells” (Scientific Reports, 2019).

Experiments:
any cells = experiment: Cytotoxicity, alamar blue assay, whole cell panel; type: cell-based; conditions: 72 h, not cytotoxic at concentrations tested
Protocol: (§1) Cytotoxicity was measured using alamar blue assay and was performed following the procedure that was described previously[21],[22]. Briefly, cells were inserted in 96-well plates and incubated overnight. Then, the complexes were dissolved in dimethyl sulfoxide (DMSO, LGC Biotechnology, São Paulo, SP, Brazil) and added to each well and incubated for 72 h. […] Before the end of treatment (4 h for cell lines and 24 h for PBMC), 20 μL of a stock solution (0.312 mg/mL) of alamar blue (resazurin, Sigma-Aldrich Co.) were added to each well. Absorbance at 570 nm and 600 nm was measured using SpectraMax 190 Microplate Reader (Molecular Devices, Sunnyvale, CA, USA).

HL-60 cell xenografts = experiment: Human myeloid leukemia xenograft model; type: in vivo, C.B-17 SCID mice
Protocol: Fifty six specific-pathogen-free (SPF) C.B-17 severe combined immunodeficient (SCID) mice (females, 23–26 g) were used in this study. The animals were obtained and maintained at animal facilities from Gonçalo Moniz Institute-FIOCRUZ (Salvador, Bahia, Brazil), and housed in cages with free access to food and water, and kept under a 12:12 h light-dark cycle (lights on at 6:00 a.m.). The animals were treated according to ethical principles for animal experimentation of SBCAL (Brazilian Association of Laboratory Animal Science), Brazil. Experimental protocol have been approved (number 06/2015) by Animal Ethics Committee of Gonçalo Moniz Institute-FIOCRUZ (Salvador, Bahia, Brazil).
Human myeloid leukemia xenograft model was carry out as described previously by Rodrigues et al.[26] with minor modifications. HL-60 cells (2.5 × 10^7 cells/500 µL) were implanted subcutaneously into the left front armpit of the mice. […] When the tumors reached 100 to 200 mm^3 (22 days after HL-60 cells injection), the animals were treated through the intraperitoneal route (200 µL per animal) once a day for 13 consecutive days. One day after the end of the treatment, the animals were anesthetized, and peripheral blood samples were collected from brachial artery. Animals were euthanized by anesthetic overdose, and tumors were excised and weighed.

HL-60 cells [1] = experiment: Apoptosis quantification, annexin V-FITC/PI flow cytometry; type: cell-based, human
Protocol: Shortly, cells were washed twice with saline solution and resuspended in 100 μL of binding buffer plus 5 μL of propidium iodide (PI) and 5 μL of FITC Annexin V. Then, cells were gently mixed by vortexing and incubated for 15 min at room temperature in the dark. Finally, 400 μL of binding buffer was added to each tube, and the cell fluorescence was determined by flow cytometry, as described above. Percentage of viable, early apoptotic, late apoptotic and necrotic cells were measured. […] Cells were then analyzed by FITC Annexin V Apoptosis Detection assay as described above.

[2] = Toxicological evaluation in xenograft mice; type: in vivo, C.B-17 SCID mice; conditions: complex 1 20 and 40 mg/kg
Protocol: To assess toxicological aspects, mice were weighed at the beginning and at the end of the experiment as described previously by Rodrigues et al.[26]. […] Hematological analysis was performed using the Advia 60 hematology system (Bayer, Leverkusen, Germany). Livers, kidneys, lungs and hearts were removed, weighed and examined for any signs of macroscopic lesions, color changes and/or hemorrhages. After macroscopic examination, tumors, livers, kidneys, lungs and hearts were fixed in 4% formalin buffer and embedded in paraffin. Tissue sections were stained with hematoxylin/eosin staining, and a pathologist performed the histological analyses under optical microscopy.

HL-60 cells [3] = experiment: Trypan blue exclusion assay; type: cell-based, human
Protocol: The number of viable cells and non-viable (take up trypan blue) were counted by TBE method. Shortly, 90 μL was removed from the cell suspension and 10 μL of trypan blue (0.4%) was added. Cell counting was performed using a light microscope with a neubauer chamber.

[4] = system: PBMC (human peripheral blood mononuclear cells); experiment: Cytotoxicity, alamar blue assay; type: cell-based; conditions: non-cancer cells, 72 h, read-out: IC50 and 95% CI, PBMC
Excerpt: HL-60 (human acute promyelocytic leukemia), K-562 (human chronic myelogenous leukemia), HCT116 (human colon carcinoma), HepG2 (human hepatocellular carcinoma), HSC-3 (human oral squamous cell carcinoma), SCC-9 (human oral squamous cell carcinoma), B16-F10 (mouse melanoma), MRC-5 (human lung fibroblast), WT SV40 MEF (wild-type immortalized mouse embryonic fibroblast) and BAD KO SV40 MEF (BAD gene knockout immortalized mouse embryonic fibroblast) cell lines were obtained from American Type Culture Collection (ATCC, Manassas, VA, USA). Human peripheral blood mononuclear cells (PBMC) were isolated using standard Ficoll density gradient from heparinized blood collected from 20- to 35-year-old, non-smoker healthy donors with informed consent (number 031019/2013) approved by Human Ethics Committee of Gonçalo Moniz Institute from Oswaldo Cruz Foundation (IGM-FIOCRUZ/BA), and all experiments were performed in accordance with relevant guidelines and regulations. Cells were cultured as recommended by ATCC guidelines and a mycoplasma stain kit (Sigma-Aldrich) was used to validate the use of cells free from contamination. Cell viability in all experiments was examined using the trypan blue exclusion (TBE) assay. Over 90% of the cells were viable at the beginning of the culture.
as §1

[5] = system: HSC-3 (human oral squamous cell carcinoma); experiment: Cytotoxicity, alamar blue assay; type: cell-based; conditions: for Selectivity index, HSC-3 versus MRC-5: SI = IC50[MRC-5]/IC50[HSC-3]; for Selectivity index, HSC-3 versus PBMC: SI = IC50[PBMC]/IC50[HSC-3]; for IC50: alamar blue, 72 h, read-out: IC50 and 95% CI, HSC-3
Protocol: as §1

[6] = system: BAD KO SV40 MEF (immortalized mouse embryonic fibroblast with the BAD gene knocked out); experiment: Cytotoxicity, alamar blue assay; type: cell-based; conditions: 72 h, read-out: IC50, BAD KO SV40 MEF cell line
Protocol: as §1

[7] = system: HCT116 (human colon carcinoma); experiment: Cytotoxicity, alamar blue assay; type: cell-based; conditions: for Selectivity index, HCT116 versus MRC-5: SI = IC50[MRC-5]/IC50[HCT116]; for Selectivity index, HCT116 versus PBMC: SI = IC50[PBMC]/IC50[HCT116]
Protocol: as §1

[8] = system: HepG2 (human hepatocellular carcinoma); experiment: Cytotoxicity, alamar blue assay; type: cell-based; conditions: for Selectivity index, HepG2 versus MRC-5: SI = IC50[MRC-5]/IC50[HepG2]; for Selectivity index, HepG2 versus PBMC: SI = IC50[PBMC]/IC50[HepG2]
Protocol: as §1

[9] = system: MRC-5 (human lung fibroblast); experiment: Cytotoxicity, alamar blue assay; type: cell-based; conditions: non-cancer cells, 72 h, read-out: IC50 and 95% CI, MRC-5
Protocol: as §1

[10] = system: K-562 (human chronic myelogenous leukemia); experiment: Cytotoxicity, alamar blue assay; type: cell-based; conditions: for Selectivity index, K-562 versus MRC-5: SI = IC50[MRC-5]/IC50[K-562]; for Selectivity index, K-562 versus PBMC: SI = IC50[PBMC]/IC50[K-562]
Protocol: as §1

[11] = system: WT SV40 MEF (wild-type immortalized mouse embryonic fibroblasts); experiment: Cytotoxicity, alamar blue assay; type: cell-based; conditions: 72 h, read-out: IC50, WT SV40 MEF cell line
Protocol: as §1

[12] = system: SCC-4 (human oral squamous cell carcinoma); experiment: Cytotoxicity, alamar blue assay; type: cell-based; conditions: for Selectivity index, SCC-4 versus MRC-5: SI = IC50[MRC-5]/IC50[SCC-4]; for Selectivity index, SCC-4 versus PBMC: SI = IC50[PBMC]/IC50[SCC-4]
Protocol: as §1

[13] = system: HL-60 (human acute promyelocytic leukemia); experiment: Cytotoxicity, alamar blue assay; type: cell-based; conditions: for Selectivity index, HL-60 versus MRC-5: SI = IC50[MRC-5]/IC50[HL-60]; for Selectivity index, HL-60 versus PBMC: SI = IC50[PBMC]/IC50[HL-60]; for IC50: alamar blue, 72 h, read-out: IC50 and 95% CI, HL-60
Protocol: as §1

B16-F10 (mouse melanoma) = experiment: Cytotoxicity, alamar blue assay; type: cell-based; conditions: for Selectivity index, B16-F10 versus MRC-5: SI = IC50[MRC-5]/IC50[B16-F10]; for Selectivity index, B16-F10 versus PBMC: SI = IC50[PBMC]/IC50[B16-F10]
Protocol: as §1

HL-60 cells [14] = experiment: Intracellular ruthenium quantification by energy dispersive X-ray spectrometer; type: cell-based, human; conditions: HL-60, 3 h, 500 µM
Protocol: Intracellular ruthenium quantification in HL-60 cells was evaluated by energy dispersive X-ray spectrometer (EDS)[23]. Cells were fixed in sodium cacodylate buffer (0.1 M sodium cacodylate solution pH 7.4, plus 2.5% glutaraldehyde and 2% paraformaldehyde) for at least 2 h. After washing, cells were dehydrated in an acetone series and embedded in polybed epoxy resin (Polysciences; Warrington, PA). Ultrathin sections were examined under a JEM-1230 transmission electron microscope (TEM) integrated with an EDS microanalytics system (JEOL USA, Inc., Peabody, MA, USA).

[15] = 20 mg/kg intraperitoneal once a day for 13 consecutive days
[16] = 40 mg/kg intraperitoneal once a day for 13 consecutive days

Row | Compound | Apoptosis (annexin V-FITC positive cells) (HL-60 cells [1]; HL-60, 12 h, 1 μM) | Apoptosis (annexin V-FITC positive cells) (HL-60 cells [1]; HL-60, 12 h, 2 μM) [%] | Apoptosis (annexin V-FITC positive cells) (HL-60 cells [1]; HL-60, 24 h, 1 μM) [%] | Apoptosis (annexin V-FITC positive cells) (HL-60 cells [1]; HL-60, 24 h, 2 μM) [%] | Reduction of the number of viable cells (HL-60 cells [3]; HL-60, 12 h, 1 μM) | Reduction of the number of viable cells (HL-60 cells [3]; HL-60, 12 h, 2 μM) [%] | Reduction of the number of viable cells (HL-60 cells [3]; HL-60, 24 h, 1 μM) [%] | Reduction of the number of viable cells (HL-60 cells [3]; HL-60, 24 h, 2 μM) [%] | IC50 [4] [µM] | Selectivity index, HSC-3 versus MRC-5 [5] | Selectivity index, HSC-3 versus PBMC [5] | IC50 [5] [µM] | IC50 [6] [µM] | Selectivity index, HCT116 versus MRC-5 [7] | Selectivity index, HCT116 versus PBMC [7] | Selectivity index, HepG2 versus MRC-5 [8] | Selectivity index, HepG2 versus PBMC [8] | IC50 [9] [µM] | Selectivity index, K-562 versus MRC-5 [10] | Selectivity index, K-562 versus PBMC [10] | also measured
1 | Cc1cc(=O)[nH]c(=S)[nH]1 [6-methyl-2-thiouracil] | – | – | – | – | – | – | – | – | – | – | – | – | – | – | – | – | – | – | – | – | IC50 (any cells): > 176 µM
2 | Cc1cc(=O)[nH]c([S][Ru]([S]c2nc(C)cc(=O)[nH]2)([PH](c2ccccc2)(c2ccccc2)c2ccccc2)[PH](c2ccccc2)(c2ccccc2)c2ccccc2)n1 [Complex 1, cis-[Ru(6m2tu)2(PPh3)2]] | no statistically significant apoptosis induction | 37.2 | 38.5 | 66.4 | no statistically significant reduction | 36.9 | 65.3 | 77.1 | 2.57 | 1.3 | 0.6 | 4.37 | 3.1 | 4.1 | 1.9 | 6 | 2.7 | 5.71 | 28.6 | 12.9 | Mean of tumor mass weight (HL-60 cell xenografts; [15]): 0.4 ± 0.1 g; Tumor mass inhibition rate (HL-60 cell xenografts; [15]): 73.1%; Mean of tumor mass weight (HL-60 cell xenografts; [16]): 0.3 ± 0.1 g; Tumor mass inhibition rate (HL-60 cell xenografts; [16]): 79.9%; Tumor histomorphological analysis (HL-60 cell xenografts; 20 and 40 mg, hematoxylin/eosin): areas with nodular/encapsulated growth and extracellular matrix formation were more evident; Liver histopathology [2]: focal areas of steatosis were observed; Kidney histopathology ([2]; doxorubicin 0.1 mg/kg): Coagulation necrosis was observed in renal tubules; Lung histopathology ([2]; doxorubicin 0.1 mg/kg): inflammation was more evident; IC50 [11]: 3.5 µM; Selectivity index, SCC-4 versus MRC-5 [12]: 3.5; Selectivity index, SCC-4 versus PBMC [12]: 1.6; Selectivity index, HL-60 versus MRC-5 [13]: 571; Selectivity index, HL-60 versus PBMC [13]: 257; IC50 [13]: 0.01 µM; Selectivity index, B16-F10 versus MRC-5 (B16-F10 (mouse melanoma)): 6.9; Selectivity index, B16-F10 versus PBMC (B16-F10 (mouse melanoma)): 3.1
3 | N.N.[Cl][Pt][Cl] [cisplatin] | – | – | – | – | – | – | – | – | – | – | – | – | – | – | – | – | – | – | – | – | Intracellular platinum (HL-60 cells [14]): able to quantify platinum
4 | O=C1[O][Pt]2([NH][C@@H]3CCCC[C@H]3[NH]2)[O]C1=O [oxaliplatin, reference compound] | – | – | – | – | – | – | – | – | 14.9 | – | – | – | – | – | – | – | – | 1.54 | – | – | Intracellular platinum (HL-60 cells [14]): able to quantify platinum; IC50 (B16-F10 (mouse melanoma); alamar blue, 72 h, read-out: IC50 and 95% CI, B16-F10): 0.03 µM
5 | [Ru(6m2tu)2(dppb)] [Complex 2] | no statistically significant apoptosis induction | 31.1 | 32.1 | 55.9 | no statistically significant reduction | 44.1 | 36.1 | 60.1 | 1.25 | 1.5 | 0.6 | 2.04 | 4.2 | 2.6 | 1.1 | 3.7 | 1.5 | 3.06 | 9 | 3.7 | IC50 [11]: 3.9 µM; Selectivity index, SCC-4 versus MRC-5 [12]: 2.5; Selectivity index, SCC-4 versus PBMC [12]: 1; Selectivity index, HL-60 versus MRC-5 [13]: 23.5; Selectivity index, HL-60 versus PBMC [13]: 9.6; IC50 [13]: 0.13 µM; Selectivity index, B16-F10 versus MRC-5 (B16-F10 (mouse melanoma)): 2.9; Selectivity index, B16-F10 versus PBMC (B16-F10 (mouse melanoma)): 1.2
